{
  "source": "patent US10583109B2",
  "about": "“Use of silver(I) complexes as anticancer agents” (University of Johannesburg, priority 2012, dated 2020)",
  "key": {"[1]": {"system": "SNO-oesophageal cancer cells", "assay": "Morphological features of SNO-oesophageal cancer cells by inverse light microscopy", "type": "cell-based", "conditions": "10 μM, 24 hours of treatment", "experimental": "Morphological studies were done by means of an Axiovert 25 inverted microscope (Carl Zeiss, Göttingen, Germany) with Axio Vision 3.1 software (Carl Zeiss, Göttingen, Germany) using an magnification of 100×.\nAfter 24 hours of treatment with complexes (1)-(5) including their ligands the cells were examined under said Axiovert 25 inverted light microscope. This was done to determine how the complexes of the present invention influence morphology which was compared to 100 μM Cisplatin (apoptotic control) and 15% H2O2 (necrotic control).\nLight microscope images indicating the morphology of the differentially treated SNO-oesophageal cancer cells is shown in FIG. 8. An untreated control (a) including 100 μM Cisplatin (b), an apoptotic control and 15% H2O2 (c), and a necrotic control was included. Cells were treated with 10 μM silver(I) thiocyanate phosphine complexes (1)-(5) as well as their separate ligands (Ligand-1 to Ligand-5, respectively) (FIGS. 8d to 8m). Black arrows represent signs of apoptosis, while the white arrows represent signs of necrosis.\nAn Axiovert 25 inverted microscope was used to examine if these complexes affect the morphological features of the malignant cells in any other way. This was done at a magnification of 100× with the use of Axio Version 3.1 software (Carl Zeiss, Gottingen, Germany).\nMorphological studies where done after 24 hours of treatment to determine how these compounds influence/change specific features of the malignant SNO-oesophageal cancer cells, compared to the untreated (UC) and 1% DMSO vehicle control. The treated cancer cells including their controls were examined under an Axiovert 25 inverted light microscope (Carl Zeiss, Göttingen, Germany) with Axio Vision 3.1 software (Carl Zeiss, Göttingen, Germany) using a 100× magnification. In FIG. 19, the morphology of the different controls including Ligand-10 and complexes (10)-(12) are represented. To predict the targeting mechanisms of these compounds, the treated cells were compared to 100 μM Cisplatin (apoptotic control) and 25% H2O2 (necrotic control)."}, "[2]": {"system": "SNO-oesophageal cancer cells", "assay": "Flow cytometric analysis (Annexin-V FITC / PI) of apoptosis and/or necrosis in SNO-oesophageal cancer cells", "type": "cell-based", "conditions": "10 μM", "experimental": "To determine if either apoptosis or necrosis occurred, the cells were double labelled with Annexin-V FITC and Propidium Iodide (PI) by means of an Annexin-V FITC assay kit (Serotec, UK). This was done according to manufacturer's instructions with a few adjustments. Briefly, the cells (±3×10^5 cells/ml) were washed twice with cold phosphate buffered saline (PBS), followed by the addition of 100 μl 1× binding buffer. Two and a half microliters of Annexin-V along with 5 μl PI were added in the dark and was incubated for 15 minutes at room temperature. After incubation, 400 μl 1× binding buffer was added and cells were analysed using the FACSAria flow cytometer (BD Biosciences, San Jose, Calif.) with FACSDiva software (BD Biosciences, San Jose, Calif.) 492 nm (excitation) and 520 nm for Annexin and 488 nm and 575 nm(emission) for PI.\nThe cell membrane contains a negatively charged phosphatidylserine (PS) on the inner leaflet and is exposed when apoptosis or necrosis takes place. Annexin-V interacts with PS in both apoptotic and necrotic cells, making these cellular deaths undistinguishable. This is overcome by using PI as an alternative label that interacts with the exposed DNA of necrotic cells only, leading to the fluorescent detection of both these labels. Pie charts (FIG. 9) were constructed for all the controls (including Ligand-1 to Ligand-5) and the different silver(I) thiocyanate phosphine complexes (1)-(5).\nPie charts representing the four different flow cytometric quadrants of Annexin-V and […] to determine the mode of cellular death induced in differentially treated SNO-oesophageal cells are represented in FIG. 9. An untreated control (A), apoptotic control (B) and necrotic control (C) were included. Cells were treated with 10 μM of the different ligands including the silver(I) thiocyanate phosphine complexes (1)-(5). An average percentage was calculated for all segments where the SEM is n=3 for all treatments except for 15% H2O2 (n=2). The four segments represent the following: White segment—negative for FITC and PI, Light grey segment—positive for FITC but negative for PI, Dark grey segment—positive for PI but negative for FITC and Black segment—positive for both FITC and PI. Cells undergoing early apoptosis are represented by the light grey segment, while those of late apoptosis and primary necrosis are represented by the black segment. Necrotic cells are represented by the dark grey segment and intact viable cells are shown by the white segment.\nApproximately 3×10^5 cells were washed with ice cold phosphate buffered saline solution (PBS). The cells were double labeled using an Annexin-V FITC assay kit adjusting the protocol. A 1× binding buffer (100 μl) was used to fix the cells. Annexin-V (2.5 μl) and Propidium Iodide (PI—5 μl) labels were added respectively followed by a 15 minute incubation, at room temperature, in the dark. After the incubation period, 400 μl of the 1× binding buffer was added, where counting of the cellular events was made using an FACSAria flow cytometer (BD Biosciences, San Jose, Calif.) with FACSDiva software (BD Biosciences, San Jose, Calif.). This technique in particular identifies whether predicted apoptotic cell death (or necrosis) was induced by these complexes.\nAs observed in FIG. 14, dot blots represent the mode of cellular death induced in the SNO-oesophageal cancer cells after 24 hours of treatment. FIG. 14(a): 0.1% DMSO, FIG. 14(b): 100 μM CDDP, FIG. 14(c): 25% H2O2, FIG. 14(d-i): complexes (6)-(9). An average percentage was calculated for all quadrants where the SEM is n=2 for all treatments. The four quadrants represent the following: Quadrant Q3 is negative for FITC and PI, Quadrant Q4 is positive for FITC but negative for PI, Quadrant Q1 is positive for PI but negative for FITC and Quadrant Q2 is positive for both FITC and PI. Cells undergoing early apoptosis are more likely to be found in Quadrant Q4 while those of late apoptosis and primary necrosis will be found in Quadrant Q2. […]"}},
  "data": [
    {"compound": "C1#[N+][Ag]([P+](c2ccccc2)(c2ccccc2)c2ccccc2)([P+](c2ccccc2)(c2ccccc2)c2ccccc2)[S]C#[N+][Ag]([P+](c2ccccc2)(c2ccccc2)c2ccccc2)([P+](c2ccccc2)(c2ccccc2)c2ccccc2)[S]1", "note": "[complex (1), [AgSCN(PPh3)2]2]", "values": [
      {"measurement": "necrotic cell death (morphology)", "setting": "[1]", "value": "Necrotic cell death was also observed"},
      {"measurement": "viable cells (flow cytometry)", "setting": "[2]; 24 hour treatment", "value": "~57.47", "unit": "%"}
    ]},
    {"compound": "[AgSCN{P(4-FC6H4)3}2]2 [complex (3)]", "values": [
      {"measurement": "necrotic cell death (morphology)", "setting": "[1]", "value": "Necrotic cell death was also observed"},
      {"measurement": "cancer cells in which apoptosis was induced (flow cytometry)", "setting": "[2]; 24 hour treatment", "value": "more than half"},
      {"measurement": "viable cells (flow cytometry)", "setting": "[2]; 24 hour treatment", "value": "approximately 28%"}
    ]},
    {"compound": "c1ccc([P+](c2ccccc2)(c2ccccc2)[Ag+]([P+](c2ccccc2)(c2ccccc2)c2ccccc2)([P+](c2ccccc2)(c2ccccc2)c2ccccc2)[P+](c2ccccc2)(c2ccccc2)c2ccccc2)cc1", "note": "[complex (9), AgNO3(PPh3)4]", "values": [
      {"measurement": "apoptotic cell death (flow cytometry, Q4 and Q2)", "setting": "[2]; 24 hours of treatment", "value": 15.3, "unit": "%"}
    ]}
  ]
}
